BindingDB's records for doi:10.1016/s0960-894x(00)00323-1 (The University of Newcastle, 2000)

Molecular target: Protein phosphatase 1 catalytic subunit (PP1)
Experiment: Inhibitory activity against recombinant Protein phosphatase 1

SMILES | IC50 [µM]
COC1OC(=O)[C@H]2[C@@H]1[C@@H]1CC[C@H]2O1 (stereo partly drawn) [(1R,2S,6R,7S)-5-Methoxy-4,10-dioxa-tricyclo[5.2.1.0*2,6*]decan-3-one] | > 1000
CCOC(=O)C1C(C(=O)O)[C@@H]2CC[C@H]1O2 (stereo partly drawn) [(1R,4S)-7-Oxa-bicyclo[2.2.1]heptane-2,3-dicarboxylic acid monoethyl ester] | 2.96
